Reference: the NIST ThermoML archive (doi:10.1016/j.jct.2004.05.008)

Assays:
[1] = Molar enthalpy of transition or fusion; conditions: Crystal
[2] = molar heat capacity at constant pressure; conditions: 101.33 kPa
[3] = Crystal

O=C1OC(=O)C2=C1CCCC2 [3,4,5,6-tetrahydrophthalic anhydride]
Conditions	Molar enthalpy of transition or fusion [kcal/mol]	Triple point temperature [K]
[1]	2.839	–
[3]	–	343.46

[2]
Conditions	molar heat capacity at constant pressure [J/K/mol]
80.34 K, Crystal	56.23
83.47 K, Crystal	56.18
86.53 K, Crystal	56.31
89.58 K, Crystal	56.4
92.48 K, Crystal	56.87
95.3 K, Crystal	57.18
98.08 K, Crystal	57.46
100.82 K, Crystal	57.84
103.56 K, Crystal	57.96
106.09 K, Crystal	58.31
108.63 K, Crystal	58.53
111.12 K, Crystal	58.74
113.61 K, Crystal	59.12
116.02 K, Crystal	59.31
118.43 K, Crystal	59.66
120.75 K, Crystal	60.05
123.08 K, Crystal	60.42
125.35 K, Crystal	60.99
127.64 K, Crystal	61.14
129.84 K, Crystal	61.87
132.12 K, Crystal	62.27
134.33 K, Crystal	62.87
136.53 K, Crystal	63.57
138.65 K, Crystal	64.15
140.81 K, Crystal	64.74
142.92 K, Crystal	65.78
145.08 K, Crystal	66.49
147.12 K, Crystal	67.22
149.15 K, Crystal	68.03
151.27 K, Crystal	69
153.3 K, Crystal	69.87
155.3 K, Crystal	70.76
157.37 K, Crystal	71.32
159.37 K, Crystal	72.03
161.36 K, Crystal	72.91
163.27 K, Crystal	73.95
165.22 K, Crystal	74.97
167.13 K, Crystal	76.01
169.12 K, Crystal	76.73
171.05 K, Crystal	77.91
172.94 K, Crystal	78.5
174.85 K, Crystal	79.78
176.72 K, Crystal	80.51
178.63 K, Crystal	81.53
180.46 K, Crystal	82.71
182.28 K, Crystal	83.6
184.11 K, Crystal	84.61
185.95 K, Crystal	85.45
187.77 K, Crystal	86.62
189.63 K, Crystal	87.81
191.38 K, Crystal	88.82
193.21 K, Crystal	89.85
194.95 K, Crystal	91.18
196.74 K, Crystal	92.52
198.56 K, Crystal	93.84
200.32 K, Crystal	95.12
202.04 K, Crystal	96
203.79 K, Crystal	97.45
205.5 K, Crystal	99.08
207.28 K, Crystal	100.34
208.94 K, Crystal	101.59
210.65 K, Crystal	102.87
212.31 K, Crystal	103.87
214.01 K, Crystal	105.32
215.67 K, Crystal	106.26
217.29 K, Crystal	107.56
218.95 K, Crystal	108.78
220.53 K, Crystal	109.96
222.27 K, Crystal	111.19
223.72 K, Crystal	112.09
225.46 K, Crystal	113.46
227.04 K, Crystal	114.91
228.58 K, Crystal	116.07
230.24 K, Crystal	117.61
231.74 K, Crystal	119.05
233.19 K, Crystal	120.59
234.7 K, Crystal	122.14
236.22 K, Crystal	123.06
237.68 K, Crystal	124.72
239.17 K, Crystal	126.14
240.66 K, Crystal	127.28
242.12 K, Crystal	128.82
243.56 K, Crystal	131.28
244.92 K, Crystal	131.95
246.4 K, Crystal	132.94
247.8 K, Crystal	133.95
249.31 K, Crystal	135.13
250.75 K, Crystal	136.4
252.21 K, Crystal	137.63
253.66 K, Crystal	138.64
255.1 K, Crystal	140.01
256.48 K, Crystal	141.43
257.94 K, Crystal	143.17
259.38 K, Crystal	144.54
260.76 K, Crystal	146.26
262.22 K, Crystal	147.86
263.56 K, Crystal	149.6
264.98 K, Crystal	151.29
266.44 K, Crystal	153.66
267.8 K, Crystal	155.02
269.17 K, Crystal	156.54
270.62 K, Crystal	158.31
271.99 K, Crystal	160.29
273.83 K, Crystal	162.61
276.06 K, Crystal	165.27
278.26 K, Crystal	168.2
280.47 K, Crystal	170.86
282.77 K, Crystal	174.18
285 K, Crystal	177.2
287.13 K, Crystal	180
289.24 K, Crystal	183.15
291.4 K, Crystal	185.52
293.54 K, Crystal	188.07
295.62 K, Crystal	190.23
297.76 K, Crystal	193.49
299.9 K, Crystal	196.12
302.04 K, Crystal	198.91
304.16 K, Crystal	201.6
306.28 K, Crystal	204.33
308.44 K, Crystal	208.09
310.59 K, Crystal	210.93
312.73 K, Crystal	214.84
314.77 K, Crystal	218
316.97 K, Crystal	220.39
319 K, Crystal	224.36
321.06 K, Crystal	227.34
323.12 K, Crystal	231.9
325.11 K, Crystal	237.01
327.12 K, Crystal	241.19
329.09 K, Crystal	246.67
330.99 K, Crystal	261.9
346.46 K, Liquid	275.09
348.18 K, Liquid	275.94
350 K, Liquid	277.07
351.67 K, Liquid	278.18
353.41 K, Liquid	279.59
355.08 K, Liquid	280.65
356.67 K, Liquid	281.82
360.3 K, Liquid	284.63
